Three compounds from patent US20140301961A1, “COMPOUNDS WITH ANTI-AGING ACTIVITIES” (priority 2011, published 2014) can be followed below.

The structures appear in SMILES notation.

Data set [1] deals with heparin-binding EGF-like growth factor (HBEGF). The data set can be described thus: Affymetrix gene array on skin explants, HBEGF. Type of data set: cell-based, human. The following applies: topical, 24 hours, cut-off |log 2−ratio|>1. From the text: (§1) Subcutaneous fat from full thickness skin, obtained from surgical waste material from breast reduction procedures, was removed with a scalpel. Three healthy Caucasian female donors were used for this study. The female donors differed from those of the skin-treatment study outlined previously 8 mm punch biopsies were taken from the skin (and these biopsies are now referred to as skin explants). Skin explants were put on Milipore cell culture inserts (12 mm diameter). Inserts containing skin explants were put in 6-well plates (one insert/well) and 1 mL of supplemented keratinocyte medium (ex Cascade Biologics) was added to each well. A tretinoin-containing cream (Aberela® ex. Janssen): 0.05% tretinoin in the cream, was applied topically to each explant (5 μL/cm^2) using a positive displacement pipette. A placebo cream without tretinoin was used as a control. The skin explants were incubated with tretinoin for 24 hours at 37° C. in 5% CO2-humidified air.
(§2) RNA concentration was measured with ND-1000 spectrophotometer (ex. NanoDrop Technologies) and RNA quality was evaluated using the Agilent 2100 bioanalyzer system (ex. Agilent Technologies). 250 nanograms of total RNA from each skin or skin explant sample was used to prepare biotinylated fragmented cRNA according to the GeneChip® 3′IVT Express Kit Manual (PN702646 Rev 1, ex. Affymetrix Inc.). Affymetrix GeneChip® expression arrays (Human Genome U133 Plus 2.0) were hybridized for 16 hours in a 45° C. incubator, rotated at 60 rpm. According to the GeneChip Expression Wash, Stain and Scan Manual (PN 702731 Rev 2, ex. Affymetrix Inc.) the arrays were washed and stained using the Fluidics Station 450 and scanned using the GeneChip® Scanner 3000 7G.
Analysis of the gene expression data was carried out in the statistical computing language R (http://www.r-project.org) using packages available from the Bioconductor project (www.bioconductor.org). The raw data was normalized using the robust multi-array average (RMA) method. […]

The test system of data set [2] is human reconstructed epidermis (SkinEthic model). In words: In vitro skin irritation, OECD guideline 439. Type of data set: cell-based. The following applies: pure compound, cytotoxicity assay on reconstructed epidermis. As for the experimental part: The studies, aimed at evaluating the capability of the test compound to induce skin irritation effects by a cytotoxicity assay on in vitro human reconstructed epidermis (SkinEthic), were carried out according to the ECVAM protocol of Apr. 27, 2007, the B46 method of the official journal of the European union, dated Aug. 14, 2009 and the OECD guideline 439.

Data set [3] concerns arachidonate 5-lipoxygenase (ALOX5). The data set can be described thus: Affymetrix gene array on skin explants, ALOX5. Type of data set: cell-based, human. Conditions: topical, 24 hours.
Source text: as §1, §2
(§3) Analysis of the gene expression data was carried out in the statistical computing language R (http://www.r-project.org) using packages available from the Bioconductor project (www.bioconductor.org). The raw data was normalized using the robust multi-array average (RMA) method. In order to search for differentially expressed genes between the X samples and the Y samples group an empirical Bayes moderated t-test was then applied using the ‘limma’ package.
Skin explants were obtained as detailed in Example 3.1.

Data set [4] concerns connective tissue growth factor (CTGF). In words: Affymetrix gene array on skin explants, CTGF. Type of data set: cell-based, human. The following applies: topical, 24 hours, cut-off |log 2−ratio|>1.
Source text: as §1, §2, §3
Skin explants were obtained as detailed in Example 3.1. Compounds naringenin and N-acetyl aspartic acid were topically applied on skin explants for 24 hours and investigated with Affymetrix gene array.

Another data set relates to GM-CSF. The data set can be described thus: GM-CSF production in PMA-stimulated human dermal fibroblasts. Type of data set: cell-based. The following applies: PMA 10 nM (FIG. 8). As to the method: Cell Cultures were Prepared According to Example 3.1
To induce inflammation in the cells PMA (phorbol myristate acetate) (ex. Sigma) was used at a concentration of 10 nM. […] The cells were stimulated for 24 h and the culture supernatant was collected and stored at −20° C. until further analysis.
Experimental method as outlined in Example 3.1 was modified in order to analyze GM-CSGF levels in human dermals fibroblasts stimulated with all-trans retinoic acid, retinol, arachidonic acid, β-aescin, and […] (ethyl ester) at a range of concentrations. Experiments were performed in duplicates.

A short description of data set [5]: In vitro skin permeation, static Franz diffusion cells. Conditions: 0.5% w/w in a basic formulation, topical, 24 hours, pig skin (FIG. 1). Type of data set: in vitro ADME.
Source text: The in vitro skin permeation experiments were developed and validated according to the Organization for Economic Co-Operation and Development adopted guideline 428 (OECD guideline for the testing of chemicals. Skin absorption: in vitro method. Guideline 428 (Paris, April 2004, updated January 2011)).
For this investigation, static Franz glass diffusion cells (Permegear, USA) were used. These cells consist of donor and receptor chambers in between which a piece of porcine skin was positioned (thickness 800 μm). About 20 mg/cm^2 of each formulation were applied on the skin surface through the donor compartment in triplicate for each formulation. The pig skin samples were equilibrated for 30 minutes, and air bubbles were removed. The cells were kept at constant temperature with a circulating water flow at 37° C. and the receptor compartment content (ethanol/water 50:50) was continuously agitated by magnetic stirrers.
After an exposure time of 24 hours, the diffusion cells were dismounted and each active was analysed in each compartment. • the non absorbable dose: the skin surface was washed with 10.0 ml of methanol and one tape-strip was made in order to remove the residual donor samples. • the potentially absorbable dose: the tape stripping procedure was used in order to separate the stratum corneum from the skin sample. […]
Another data set has as its system keratin 6. In words: Keratin-6 production in normal human keratinocytes. Type of data set: cell-based. Conditions: normal human keratinocytes (FIG. 11).
The subject of data set [6] is Plasminogen activator (PLAT). The data set can be described thus: Plasminogen activator (PLAT) activation.
In data set [7] the test system is MMP-1, MMP-2, MMP-3, MMP-8, MMP-9. In words: UV-induced MMP production in human skin explants. Type of data set: cell-based. The following applies: 1% in propylene glycol (FIG. 2). As to the method: MMP inhibition activity for compound of the invention was tested on human skin explants. Skin explants were sourced from 2 healthy caucasian female breast skin donor […]. A cream containing all-trans retinoic acid (tretinoin) (0.05%) was added topically using positive displacement pipette (5 ul/cm^2) to each explants. A similar cream base without tretinoin was used as placebo control. […] Solutions were kept under nitrogen and used immediately after preparation. Propylene glycol was used as vehicle control for the compounds of the invention in this study. Fluorokine MultiAnalyte Profiling (xMAP) using the BioPlex (ex. Biorad) dual laser flow-based sorting and detection analyzers manufactured by Luminex corporation (Luminex, Austin, Tex.) was employed to measure levels of MMP in conditioned media samples of stimulated dermal fibroblasts. The technology incorporated polystyrene microspheres dyed internally with differing ratios of two spectrally distinct fluorophores to create a family of different spectrally addressed bead sets. […] Samples were analyzed using the Bio-Plex suspension array system and Bio-Plex Manager software 4.0 (Bio-Rad Laboratories, Hercules, Calif.). Quantities were determined by comparison to standard curves obtained for the different MMP.

On to `O=C1C[C@@H](c2ccc(O)cc2)Oc2cc(O)cc(O)c21` [Naringenin, (S)-2,3-Dihydro-5,7-dihydroxy-2-(4-hydroxyphenyl)-4H-1-benzopyran-4-one], for which, in data set [1], the HBEGF gene expression is 1.19 log 2−ratio. Also, the skin irritation result in [2] is listed as “non-irritating to skin”. In addition, the ALOX5 gene expression in data set [3] is −0.69 log 2−ratio. Also, the CTGF gene expression in data set [4] stood at 1.05 log 2−ratio. The GM-CSF production result in the data set on GM-CSF was “inhibition of GM-CSF production”. The “penetration into the skin” value in [5] was “penetration of each active into the skin”. For the same compound, the keratin-6 production result with keratin 6 was “stimulated keratin-6 production”.

Take `CC(=O)N[C@@H](CC(=O)O)C(=O)O` [N-Acetyl aspartic acid, (2S)-2-Acetamidobutanedioic acid]: the HBEGF gene expression entry in data set [1] was “No”. In addition, the skin irritation result in data set [2] was “non-irritating to skin”. In addition, the ALOX5 gene expression in data set [3] turned out to be 0.15 log 2−ratio. In data set [6], the “Plasminogen activator (PLAT) activation” value is recorded as “activated”. Moreover, the CTGF gene expression in [4] was 1.03 log 2−ratio. In addition, the GM-CSF production entry in the data set with GM-CSF is given as “inhibition of GM-CSF production”. For the same compound, in data set [5], the “penetration into the skin” value was “penetration of each active into the skin”. Moreover, the “inhibition of UV-induced MMP-1, MMP-2, MMP-3, MMP-8, MMP-9 production” value in [7] was “inhibition”.

As to `C=C1C[C@]23C[C@@]1(O)CC[C@H]2[C@@]12C=C[C@H](O)[C@@](C)(C(=O)O1)[C@@H]2[C@@H]3C(=O)O` [Gibberellic acid, (3S,3aS,4S,4aS,7S,9aR,9bR,12S)-7,12-dihydroxy-3-methyl-6-methylene-2-oxoperhydro-4a,7-methano-9b,3-propenoazuleno[1,2-b]furan-4-carboxylic acid], in data set [3], the ALOX5 gene expression is −1.01 log 2−ratio. Moreover, the “Plasminogen activator (PLAT) activation” value in [6] is recorded as “activated”. In addition, the GM-CSF production entry in the data set on GM-CSF is “inhibition of GM-CSF production”. Besides, in data set [7], the “inhibition of UV-induced MMP-1, MMP-2, MMP-3, MMP-8, MMP-9 production” value was “inhibition”.
